Measured values published in ChEMBL document CHEMBL1153535, “Nitazoxanide kills replicating and nonreplicating Mycobacterium tuberculosis and evades resistance” (J Med Chem, 2009).
≈ marks a conversion by molar mass, not a printed value.

Experiments:
[1] = test system: Mycobacterium tuberculosis; experiment: Antimycobacterial activity against replicating Mycobacterium tuberculosis H37Rv at 62 ug/mL assessed as reduction of log10CFU/mL after 4 days; type: functional
[2] = test system: Mycobacterium tuberculosis; experiment: Antimycobacterial activity against Mycobacterium tuberculosis H37Rv after 8 days in absence of BSA; type: functional; details: 192 h
Giardia = experiment: Antimicrobial activity against Giardia; type: functional, organism-based
[3] = test system: Mycobacterium tuberculosis; experiment: Antimycobacterial activity against Mycobacterium tuberculosis H37Rv after 8 days in presence of 0.04 to 5 mg/mL of BSA; type: functional; details: 192 h
[4] = test system: Mycobacterium tuberculosis; experiment: Antimycobacterial activity against replicating Mycobacterium tuberculosis H37Rv at 125 ug/mL assessed as reduction of log10CFU/mL after 4 days relative to control; type: functional
Cryptosporidium = experiment: Antimicrobial activity against Cryptosporidium; type: functional
[5] = test system: Mycobacterium tuberculosis; experiment: Antimycobacterial activity against non-replicating Mycobacterium tuberculosis H37Rv at 125 ug/mL assessed as reduction of log10CFU/mL after 4 days relative to control; type: functional
[6] = test system: Mycobacterium tuberculosis; experiment: Antimycobacterial activity against replicating Mycobacterium tuberculosis H37Rv at 62 ug/mL assessed as reduction of log10CFU/mL after 10 days; type: functional
[7] = test system: Mycobacterium tuberculosis; experiment: Antimycobacterial activity against Mycobacterium tuberculosis H37Rv in 7H11 solid medium after 7 days; type: functional; details: 168 h
[8] = test system: Mycobacterium tuberculosis; experiment: Antimycobacterial activity against Mycobacterium tuberculosis H37Rv in 7H9 liquid medium after 7 days; type: functional; details: 168 h
[9] = test system: Mycobacterium tuberculosis; experiment: Antimycobacterial activity against replicating Mycobacterium tuberculosis H37Rv at 62 ug/mL assessed as reduction of log10CFU/mL; type: functional, organism-based; details: TDE = time-dependent effect
[10] = test system: Mycobacterium tuberculosis; experiment: Antimycobacterial activity against non-replicating Mycobacterium tuberculosis H37Rv at 62 ug/mL assessed as reduction of log10CFU/mL after 6 days relative to control; type: functional
[11] = Cmax in human plasma at 500 mg, po; type: ADME, organism-based; parameters: dose 500 mg, route oral

CC(=O)Oc1ccccc1C(=O)Nc1ncc([N+](=O)[O-])s1 [NITAZOXANIDE]
Activity [1]: 1
MIC [2]: 1 µg/mL (≈ 3.25 µM)
IC50 (Giardia): 2.5 µg/mL (≈ 8.14 µM)
MIC [3]: 16 µg/mL
Activity [4]: 2
MIC (Cryptosporidium): 10 µg/mL (≈ 32.5 µM)
Activity [5]: 6
Activity [6]: 3.5
MIC [7]: 16 µg/mL (≈ 52.1 µM)
MIC [8]: 16 µg/mL (≈ 52.1 µM)
Activity [9]: tde
Activity [10]: >=5

O=C(Nc1ncc([N+](=O)[O-])s1)c1ccccc1O [TIZOXANIDE]
Cmax [11]: 10600 ng/mL
MIC [8]: 16 µg/mL (≈ 60.3 µM)
